Entries after “also recorded” stand apart in the source; their conditions may differ. Read-outs that look alike come from different tables or passages of the source.
Legend:
[1] = tested on: Ryr1^m1Nisw/m1Nisw E18.5 diaphragm muscle; test: EMG recordings / contractility of explanted E18.5 diaphragm muscle; assay type: cell-based, mouse; conditions: for contractions / contractility (in words): bath application, KCl 6 mM, BaCl2 100 μM, potassium gluconate 6 mM, BayK8644 100 nM; for contractions / contractility (in words) / Minutes to Contraction (Stand. Dev): PMA 50 nM, AICAR 500 μM; for contractions / contractility (in words) / Minutes to Contraction (Stand. Dev) / bath application time after which contractions were elicited: Glibenclamide 2 μM, 5HA 200 μM; for Minutes to Contraction (Stand. Dev): EMG recordings, electrically stimulated; for bath application time after which contractions were elicited / explants showing contractions: n=6 for each; for explants showing contractions: after 1 hour bath application
Experimental: (§1) In other methods, whether increasing the excitability in E18.5 Ryr1^m1Nisw/m1Nisw whole diaphragm muscle could force the DHPR-RyR1 complex to initiate contractility was examined. In one exemplary method, electromyography recordings (EMG) was performed to examine whether whole muscle in vitro was sensitive to potassium-dependent depolarization by adding potassium to the bath to depolarize the membrane. […] Potassium induced excitability can also be triggered by blocking inward rectifier potassium channels.
(§2) DHPR and RyR1 interact through orthograde and retrograde signaling, but the Ryr1^m1Nisw/m1Nisw mutation is not located within this interaction region. Orthograde signaling from DHPR opens the RyR1 channel in the SR, while retrograde signaling from RyR1 controls the gating of DHPR.
(§3) FIG. 2g represents an exemplary graph of contractility of E18.5 diaphragm muscle from Ryr1^+/+, Ryr1^m1Nisw/m1Nisw, or RyR1^tm1Alle/tm1Alle embryos. After equilibration, all samples were bathed first in 6 mM KCl, followed by wash out and then addition of 100 μm BaCl as indicated. […] FIG. 2h provides an exemplary graph of contractility of E18.5 diaphragm muscle from Ryr1^+/+, Ryr1^m1Nisw/m1Nisw and RyR1^tm1Alle/tm1Alle embryos in 6 mM potassium gluconate (n=4).
(§4) In myotubes, the application of ryanodine at levels that activate RyR increases ERK1/2 protein levels and c-Fos and c-Jun transcript levels. ERK1/2 phosphorylates the most abundant potassium transport protein, Na^+, K^+-ATPase, which, in turn, induces an increase in ion transport. Na^+, K^+-ATPase is essential for maintaining the equilibrium potential of Na^+ and K^+ at the membrane. In one exemplary method, western blot was performed to analyze certain protein levels in Ryr1^m1Nisw/m1Nisw and Ryr1^tm1Alle/tm1Alle embryonic muscle extracts with beta-tubulin served as a loading control. […] In another exemplary method, Phorbol-12-myristate-13-acetate (PMA 50 nM), an activator of ERK1/2 phosphorylation, was applied to the bath of in vitro Ryr1^m1Nisw/m1Nisw diaphragm preparation to increase the phosphorylation of Na^+, K^+-ATPase.
(§5) In certain exemplary methods, restoration of membrane potential and muscle contractions by pharmacological stimulation was tested. First, effect of stimulation of AMPK activity on restoring the resting membrane potential of the mutant diaphragm muscle was determined. An AMPK activator, e.g. 5-aminoimidazole-4-carboxamide-1-β-d-ribofuranoside (AICAR, 500 μM), was bath applied to explanted Ryr1^m1Nisw/m1Nisw E18.5 diaphragm muscles. […] Next, other pharmacological stimuli were examined. […] Glibenclamide (2 μM) and 5-hydrodecanoic acid (5HA, 200 μM) selectively bind to SUR1 and SUR2 to block ATP-sensitive K^+ channels.

[2] = tested on: Ryr1^tm1Alle/tm1Alle diaphragm muscle; test: Contractility of explanted E18.5 diaphragm muscle, Ryr1 null; assay type: cell-based, mouse; conditions: same bath concentrations
Experimental: as §1, §2, §3, §4, §5

[3] = tested on: Ryr1^m1Nisw/m1Nisw diaphragm muscle; test: Sharp electrode recordings of resting membrane potential of diaphragm muscle; assay type: cell-based, mouse; conditions: for resting membrane potential after treatment / shift in membrane potential: sharp electrode; for resting membrane potential after treatment: BaCl2 n=27; for resting membrane potential after treatment / resting membrane potential (in words): PMA 50 nM; for resting membrane potential (in words): Glibenclamide 2 μM, AICAR 500 μM; for shift in membrane potential: PMA 50 nM vs ethanol, AICAR 500 μM n=18
Experimental: Therefore, in some exemplary methods, whether voltage dependent orthograde signaling through the DHPR-RyR1 complex could be initiated through changes in membrane potential was first assessed.
as §1, §4, §5

soleus muscle = test: Steady-state membrane potential (VREST) of two month old soleus muscle at varied extracellular potassium; assay type: cell-based, mouse; conditions: for VREST after drug addition: control 0.6% potassium diet, independent of extracellular potassium
Ryr1^m1Nisw/+ mice [4] = test: Grip strength test (vertical digital push-pull strain gauge); assay type: in vivo, mouse; conditions: 2 month old, four weeks of diet, Enalapril in water, or Glyburide 15 mg/kg/day oral gavage
Ryr1^m1Nisw/+ mice [5] = test: Hanging wire task (upper body muscle strength); assay type: in vivo, mouse; conditions: four weeks of diet, Enalapril in water, or Glyburide 15 mg/kg/day oral gavage
[6] = tested on: Ryr1^m1Nisw/+ vastus lateralis muscle; test: Muscle histology (H&E central nuclei, COX staining) of vastus lateralis; assay type: in vivo, mouse; conditions: after four weeks treatment
Excerpt: CCD is diagnosed and subclassified by histopathological analysis using stains such as cytochrome oxidase (COX) and nicotinamide adenine dinucleotide hydride-tetrazolium reductase (NADH-TR) which highlight mitochondria and ATP synthesis, and hematoxylin and eosin stain (H&E) to mark nuclei. In normal muscle, nuclei are located at the periphery of the myofiber and the mitochondria reside throughout the myofiber. Muscle biopsies of CCD patients show centrally located nuclei, as well as disorganized areas in the center of the myofiber called cores that lack mitochondria and are devoid of metabolic activity; these occur in some but not all muscles and are reflective of cellular damage.
Pathological examination is the hallmark diagnosis of CCD. In one exemplary method, the effects of diet on muscle histology were studied. Centrally located nuclei and decreased mitochondrial activity were detected in Ryr1^m1Nisw/+ vastus lateralis muscle compared to Ryr1^+/+ muscle in low potassium and control diets (FIGS. 5c-5k). […] In addition, the CCD phenotype was also rescued by 5-hydrodecanoic acid (5HA), which blocks ATP-sensitive K^+ channels (FIG. 4 and Table 2). […]

[7] = RyR1^m1Nisw/+ soleus muscle, bumetanide 75 μM, BaCl2 50 μM
[8] = RyR1^m1Nisw/+ soleus muscle, bumetanide 75 μM, BaCl2 50 μM, Glibenclamide 2 μM, or chronic 5.2% potassium diet
[9] = wild type muscle, low extracellular potassium / Tetanus, bumetanide 75 μM, BaCl2 50 μM, Glibenclamide 2 μM

SMILES: [Ba+2].[Cl-].[Cl-] [BaCl2]
- contractions / contractility (in words) [1]: induced stimulated bursts of activity and contractions
- contractions / contractility (in words) ([1]; listed as BaCl): rescued
- contractions / contractility (in words) ([2]; listed as BaCl): failed to contract
- resting membrane potential after treatment [3]: −68.5 mV
- VREST phase (in words) (soleus muscle): driven to phase 2
- VREST after drug addition (soleus muscle; [7]): −91.7+/−3.8 mV
- VREST phase (in words) (soleus muscle; [8]): driven to phase 2

SMILES: COc1ccc(Cl)cc1C(=O)NCCc1ccc(S(=O)(=O)NC(=O)NC2CCCCC2)cc1 [Glibenclamide]
- Minutes to Contraction (Stand. Dev) [1]: 67 (34) Minutes
- bath application time after which contractions were elicited [1]: 2 h
- explants showing contractions [1]: 50%
- resting membrane potential (in words) [3]: normalized the resting membrane potential
- grip strength (in words) (Ryr1^m1Nisw/+ mice [4]): Increased grip and hanging strength
- muscle strength in hanging task (in words) (Ryr1^m1Nisw/+ mice [5]): increased grip strength and muscle strength; also recorded: Increased grip and hanging strength
- centrally located nuclei / muscle histology (H&E) ([6]; listed as Glyburide): lack of centrally-located nuclei; also recorded: rescue the clinical and pathological manifestations of CCD; also recorded: significant reduction in the number of internal nuclei
- VREST phase (in words) (soleus muscle; [8]): rescued the phase 2 VREST to phase 1
- VREST phase (in words) (soleus muscle; [9]): protected against phase 2 shifting from phase 1

SMILES: CCCCCC(O)CCCC(=O)O (stereo not shown) [5HA, 5-hydrodecanoic acid]
- Minutes to Contraction (Stand. Dev) [1]: 106 (52) Minutes
- bath application time after which contractions were elicited [1]: 2 h
- explants showing contractions [1]: 50%
- contractions / contractility (in words) [1]: rescued

SMILES: NC(=O)c1ncn([C@@H]2O[C@H](CO)[C@@H](O)[C@H]2O)c1N [AICAR, 5-aminoimidazole-4-carboxamide-1-β-d-ribofuranoside]
- Minutes to Contraction (Stand. Dev) [1]: None
- contractions / contractility (in words) [1]: unable to initiate contractions
- contractions / contractility (in words) [2]: unable to initiate contractions
- resting membrane potential (in words) [3]: restore the mutant resting membrane potential to normal levels
- shift in membrane potential [3]: −10.4+/−3.9 mV

SMILES: CCCCNc1cc(C(=O)O)cc(S(N)(=O)=O)c1Oc1ccccc1 [bumetanide]
- VREST after drug addition (soleus muscle; [7]): −92.3+/−4.8 mV
- VREST phase (in words) (soleus muscle; [8]): driven to phase 1
- VREST phase (in words) (soleus muscle; [9]): driven to phase 1

SMILES: O=C([O-])[C@H](O)[C@@H](O)[C@H](O)[C@H](O)CO.[K+] [potassium gluconate]
- contractions / contractility (in words) [1]: Contractions also transpired

SMILES: [Cl-].[K+] [KCl]
- contractions / contractility (in words) [1]: induced bursts of electrical activity and contractions; also recorded: rescued
- contractions / contractility (in words) [2]: failed to contract

SMILES: CCOC(=O)[C@H](CCc1ccccc1)N[C@@H](C)C(=O)N1CCC[C@H]1C(=O)O [Enalapril]
- grip strength (in words) (Ryr1^m1Nisw/+ mice [4]): increased grip strength
- muscle strength in hanging task (in words) (Ryr1^m1Nisw/+ mice [5]): increased grip strength and muscle strength; also recorded: partial rescue of muscle strength
- centrally located nuclei / muscle histology (H&E) [6]: mild improvement in muscle histology

SMILES: COC(=O)C1=C(C)NC(C)=C([N+](=O)[O-])C1c1ccccc1C(F)(F)F (stereo not shown) [BayK8644]
- contractions / contractility (in words) [1]: induced contractions within minutes
- contractions / contractility (in words) [2]: no contractions occurred

SMILES: CCCCCCCCCCCCCC(=O)O[C@@H]1[C@@H](C)[C@@]2(O)[C@@H](C=C(CO)C[C@]3(O)C(=O)C(C)=C[C@@H]23)[C@@H]2C(C)(C)[C@]12OC(C)=O [PMA, Phorbol-12-myristate-13-acetate]
- time to contraction after addition [1]: ≤ 5 min
- Minutes to Contraction (Stand. Dev) [1]: 4 (2) Minutes
- contractions / contractility (in words) [1]: strongly elicited contractions
- contractions / contractility (in words) [2]: no effect
- resting membrane potential (in words) [3]: normalized the membrane potential
- resting membrane potential after treatment [3]: −67.7 mV
- shift in membrane potential [3]: −18.3+/−5.3 mV

Source: patent US20130273181A1, “METHODS AND COMPOSITIONS FOR DIAGNOSING AND TREATING MUSCLE MYOPATHY DISORDERS” (The Regents of the University of Colorado, a body Corporate, priority 2012, published 2013)
